Measured values from publication PMC9923772 (ACS chemical neuroscience, 2020).
Structures can show the parent of a compound that is named as a salt. Where two headings read alike, the source gives them in different places.

Tests used:
human MOR [1] = molecular target: T1, human MOR (Homo sapiens, UniProt P35372); test: biochemical; type: binding
human MOR [2] = molecular target: T1, human MOR; test: biochemical; settings: for Emax: read-out: Efficacy (% Stimulation) MOR, Table 5; for Emax / Efficacy (% Stimulation) MOR: relative to DAMGO at 10 μM
human DOR [3] = molecular target: T2, human DOR (Homo sapiens, UniProt P41143); test: biochemical; settings: for Efficacy DOR, percent maximal stimulation: Table 3; for Efficacy DOR, percent maximal stimulation / Efficacy (% Stimulation) DOR: relative to DPDPE at 10 μM; for Efficacy DOR, percent maximal stimulation / Efficacy (% Stimulation) DOR / Potency EC50 DOR: DNS = does not stimulate; for Emax: read-out: Efficacy DOR, percent maximal stimulation; for Potency EC50 DOR: [35S]GTPγS stimulation
human KOR [4] = molecular target: T3, human KOR (Homo sapiens, UniProt P41145); test: [35S]-GTPγS binding assay, CHO-KOR membranes; type: biochemical; settings: for Efficacy KOR, percent maximal stimulation: Table 3; for Efficacy KOR, percent maximal stimulation / Efficacy (% Stimulation) KOR: relative to U69,593 at 10 μM; for Efficacy KOR, percent maximal stimulation / Potency, EC50 KOR / Efficacy (% Stimulation) KOR: DNS = does not stimulate; for Potency, EC50 KOR: [35S]GTPγS stimulation
human KOR [5] = molecular target: T3, human KOR; type: binding
human DOR [6] = molecular target: T2, human DOR; test: biochemical; type: binding

Row | Compound | Ki (human MOR [1]) | EC50 (human MOR [2]) | Efficacy KOR, percent maximal stimulation (human KOR [4]) | Ki (human KOR [5]) | Emax (human DOR [3]) | Emax (human MOR [2]) | Efficacy (% Stimulation) DOR (human DOR [3]; Table 5) | Efficacy (% Stimulation) KOR (human KOR [4]; Table 5) | further results
1 | Cc1cc(O)cc(C)c1C[C@H](N)C(=O)NCc1cccc(CN2CCCCC2)c1.O=C(O)C(F)(F)F [A, (S)-3-(4-Hydroxy-2,6-dimethylphenyl)-1-oxo-1-((3-(piperidin-1-ylmethyl)benzyl)amino)propan-2-aminium Trifluoroacetate] | 9.3 ± 1.3 nM | > 740 nM | DNS | – | – | – | – | – | Efficacy DOR, percent maximal stimulation (human DOR [3]): DNS
2 | COc1ccc(CN2CCCCC2)cc1CNC(=O)[C@@H](N)Cc1c(C)cc(O)cc1C.O=C(O)C(F)(F)F [B, (S)-3-(4-Hydroxy-2,6-dimethylphenyl)-1-((2-methoxy-5-(piperidin-1-ylmethyl)benzyl)amino)-1-oxopropan-2-aminium Trifluoroacetate] | – | – | DNS | 23.5 ± 7.3 nM | 37.2 ± 6.2% | – | – | – | Potency, EC50 KOR (human KOR [4]; Table 2): DNS
3 | CCCOc1ccc(CN2CCCCC2)cc1CNC(=O)[C@@H](N)Cc1c(C)cc(O)cc1C.O=C(O)C(F)(F)F [C, (S)-3-(4-Hydroxy-2,6-dimethylphenyl)-1-oxo-1-((5-(piperidin-1-ylmethyl)-2-propoxybenzyl)amino)propan-2-aminium Trifluoroacetate] | – | – | DNS | – | 39.9 ± 6.5% | – | – | – | –
4 | Cc1cc(O)cc(C)c1C[C@H](N)C(=O)NCc1cc(CN2CCCCC2)ccc1OCC1CC1.O=C(O)C(F)(F)F [D, (S)-1-((2-(Cyclopropylmethoxy)-5-(piperidin-1-ylmethyl)benzyl)amino)-3-(4-hydroxy-2,6-dimethylphenyl)-1-oxopropan-2-aminium Trifluoroacetate] | – | – | DNS | – | 17.7 ± 4.4% | – | – | – | –
5 | Cc1cc(O)cc(C)c1C[C@H](N)C(=O)NCc1cccc(CN2CCc3ccccc3C2)c1.O=C(O)C(F)(F)F [E, (S)-1-((3-((3,4-Dihydroisoquinolin-2(1H)-yl)methyl)benzyl)amino)-3-(4-hydroxy-2,6-dimethylphenyl)-1-oxopropan-2-aminium Trifluoroacetate] | 0.23 ± 0.02 nM | 6.1 ± 3.1 nM | DNS | 46.3 ± 9.7 nM | 57 ± 6% | 126 ± 20% | 57±6% | DNS | Potency, EC50 KOR (human KOR [4]; Table 2): DNS; Potency, EC50 KOR (human KOR [4]; Table 5): DNS
6 | COc1ccc(CN2CCc3ccccc3C2)cc1CNC(=O)[C@@H](N)Cc1c(C)cc(O)cc1C [F, (S)-1-((5-((3,4-Dihydroisoquinolin-2(1H)-yl)methyl)-2-methoxybenzyl)amino)-3-(4-hydroxy-2,6-dimethylphenyl)-1-oxopropan-2-aminium Trifluoroacetate] | 0.16 ± 0.05 nM | 2.9 ± 0.5 nM | – | 28.4 ± 3.1 nM | 29.8 ± 3.5% | – | – | – | Ki (human DOR [6]): 3 ± 0.8 nM; EC50 (human DOR [3]): 5 ± 0.9 nM; EC50 (human KOR [4]): > 1000 nM; Emax (human KOR [4]; read-out: Efficacy KOR, percent maximal stimulation): > 15%
7 | CCCOc1ccc(CN2CCc3ccccc3C2)cc1CNC(=O)[C@@H](N)Cc1c(C)cc(O)cc1C.O=C(O)C(F)(F)F [G, (S)-1-((5-((3,4-Dihydroisoquinolin-2(1H)-yl)methyl)-2-propoxybenzyl)amino)-3-(4-hydroxy-2,6-dimethylphenyl)-1-oxopropan-2-aminium Trifluoroacetate] | 0.22 ± 0.04 nM | 2.6 ± 1.3 nM | DNS | – | – | – | – | – | Ki (human DOR [6]): 1.4 ± 0.3 nM; Potency EC50 DOR (human DOR [3]; Table 2): DNS; Efficacy DOR, percent maximal stimulation (human DOR [3]): DNS
8 | Cc1cc(O)cc(C)c1C[C@H](N)C(=O)NCc1cc(CN2CCc3ccccc3C2)ccc1OCC1CC1.O=C(O)C(F)(F)F [H, (S)-1-((2-(Cyclopropylmethoxy)-5-((3,4-dihydroisoquinolin-2(1H)-yl)methyl)benzyl)amino)-3-(4-hydroxy-2,6-dimethylphenyl)-1-oxopropan-2-aminium Trifluoroacetate] | 0.05 ± 0.01 nM | 1.6 ± 0.5 nM | DNS | 23.5 ± 3.6 nM | – | – | – | – | Ki (human DOR [6]): 3.6 ± 0.9 nM; Potency EC50 DOR (human DOR [3]; Table 2): DNS; Efficacy DOR, percent maximal stimulation (human DOR [3]): DNS; Potency, EC50 KOR (human KOR [4]; Table 2): DNS
9 | Cc1cc(O)cc(C)c1C[C@H](N)C(=O)NCCCCCN1CCc2ccccc2C1.O=C(O)C(F)(F)F [I, (S)-1-((5-(3,4-Dihydroisoquinolin-2(1H)-yl)pentyl)amino)-3-(4-hydroxy-2,6-dimethylphenyl)-1-oxopropan-2-aminium Trifluoroacetate] | 1.5 ± 0.3 nM | 15.4 ± 1.3 nM | – | 44.2 ± 5.6 nM | – | 80.8 ± 4.5% | DNS | DNS | Potency, EC50 KOR (human KOR [4]; Table 5): DNS
10 | Cc1cc(O)cc(C)c1C[C@H](N)C(=O)NCCOCCN1CCc2ccccc2C1.O=C(O)C(F)(F)F [J, (S)-1-((2-(2-(3,4-Dihydroisoquinolin-2(1H)-yl)ethoxy)ethyl)amino)-3-(4-hydroxy-2,6-dimethylphenyl)-1-oxopropan-2-aminium Trifluoroacetate] | – | – | – | – | – | 90.7% | 27.4±8.2% | 22.0±3.8% | Efficacy (% Stimulation) MOR (human MOR [2]; Table 5): 90.7±3.6%
11 | Cc1cc(O)cc(C)c1C[C@H](N)C(=O)NCCOCC(=O)N1CCc2ccccc2C1.O=C(O)C(F)(F)F [K, (S)-1-((2-(2-(3,4-Dihydroisoquinolin-2(1H)-yl)-2-oxoethoxy)-ethyl)amino)-3-(4-hydroxy-2,6-dimethylphenyl)-1-oxopropan-2-aminium Trifluoroacetate] | – | – | – | – | – | – | DNS | DNS | –
12 | Cc1cc(O)cc(C)c1C[C@H](N)C(=O)N1CCC(CCN2CCc3ccccc3C2)CC1.O=C(O)C(F)(F)F [L, (S)-1-(4-(2-(3,4-Dihydroisoquinolin-2(1H)-yl)ethyl)piperidin-1-yl)-3-(4-hydroxy-2,6-dimethylphenyl)-1-oxopropan-2-aminium Trifluoroacetate] | 1.64 ± 0.62 nM | 68 ± 19 nM | – | 21 ± 5.9 nM | – | 73 ± 12% | DNS | DNS | Potency, EC50 KOR (human KOR [4]; Table 5): DNS
13 | Cc1cc(O)cc(C)c1C[C@H](N)C(=O)N1CCN(CCN2CCc3ccccc3C2)CC1.O=C(O)C(F)(F)F [M, (S)-1-(4-(2-(3,4-Dihydroisoquinolin-2(1H)-yl)ethyl)piperazin-1-yl)-3-(4-hydroxy-2,6-dimethylphenyl)-1-oxopropan-2-aminium Trifluoroacetate] | 3.59 ± 0.4 nM | 56 ± 17 nM | – | – | – | 70 ± 16% | DNS | DNS | Ki (human DOR [6]): 16.6 ± 4.9 nM; Potency EC50 DOR (human DOR [3]; Table 5): DNS
14 | Cc1cc(O)cc(C)c1C[C@H](N)C(=O)NCCN(C)CCN1CCc2ccccc2C1.O=C(O)C(F)(F)F [N, (S)-1-((2-((2-(3,4-Dihydroisoquinolin-2(1H)-yl)ethyl)(methyl)amino)ethyl)amino)-3-(4-hydroxy-2,6-dimethylphenyl)-1-oxopro-pan-2-aminium Trifluoroacetate] | – | – | – | – | – | – | – | 43.0±2.5% | Ki (human MOR [1]; read-out: Binding Affinity, Ki MOR, Table 4, simple core compounds, mean ± SEM): 1.7 ± 0.39 nM; Ki (human DOR [6]; read-out: Binding Affinity, Ki DOR, Table 4, simple core compounds, mean ± SEM): 77 ± 45 nM; Ki (human KOR [5]; read-out: Binding Affinity, Ki KOR, Table 4, simple core compounds, mean ± SEM): 8.5 ± 1.1 nM; Efficacy (% Stimulation) MOR (human MOR [2]; Table 5): 80.0±9.5%; EC50 (human MOR [2]; read-out: Potency, EC50 MOR, Table 5, [35S]GTPγS stimulation): 24 ± 10 nM
15 | Cc1cc(O)cc(C)c1C[C@H](N)C(=O)NCC(=O)N(C)CCN1CCc2ccccc2C1.O=C(O)C(F)(F)F [O, (S)-1-((2-((2-(3,4-Dihydroisoquinolin-2(1H)-yl)ethyl)(methyl)amino)-2-oxoethyl)amino)-3-(4-hydroxy-2,6-dimethylphenyl)-1-oxopropan-2-aminium Trifluoroacetate] | – | – | – | – | – | 53 ± 17% | DNS | DNS | –
16 | Cc1cc(O)cc(C)c1C[C@H](N)C(=O)NCC(=O)NCCN1CCc2ccccc2C1.O=C(O)C(F)(F)F [P, (S)-1-((2-((2-(3,4-Dihydroisoquinolin-2(1H)-yl)ethyl)amino)-2-oxoethyl)amino)-3-(4-hydroxy-2,6-dimethylphenyl)-1-oxopropan-2-aminium Trifluoroacetate] | – | – | – | – | – | 86.6 ± 3.3% | 36.5±1.2% | DNS | –
